Test results published in patent US8580769B2, “Treatment of obesity, metabolic syndrome, and diabetes with protein kinase C inhibitors” (The United States of America as represented by the …, priority 2011, dated 2013).

Legend:
[1] = tested on: total (ι plus ζ) aPKC; experiment: aPKC activity and phosphorylation in intact human hepatocytes; type: cell-based; settings: for phosphorylation of aPKC auto(trans)phosphorylation sites (p-threonine-555/560-PKC-ι/ζ): intact human hepatocytes
Excerpt: Human cryo-preserved hepatocytes (70-90% viability) were obtained from the Zen-Bio Corp (Research Triangle Park, North Carolina). These hepatocytes were harvested after perfusion with collagenase-containing buffer of livers surgically removed from non-diabetic patients (2 females and 6 males; ages, 43-60 years, 51±3 (mean±SEM); BMI, 23-35, 30±2) and T2DM patients (2 females and 3 males, ages, 46-68 years, 60±4; BMI, 27±2; all insulin-requiring) who had been maintained as transplant donors, but were ultimately rejected for administrative reasons. To maximize the importance of comparative differences, hepatocytes from T2DM and non-diabetic patients, and of similar age and sex, were routinely incubated and assayed side-by-side.
After thawing, the hepatocytes were distributed (approximately 10^6 cells per 100 mm plate) and incubated approximately 16 hours overnight in Dulbecco's minimal essential medium containing 5% fetal calf serum, 100 units/ml sodium-penicillin, 100 μg/ml streptomycin-sulfate, 1 μM insulin and 2 μM dexamethasone. After washing, cells were incubated first for 2 hours in William's E medium (Sigma-Aldrich, St. Louis, Mo., catalog no. W1878) containing GLUTAMAX™ (Gibco/Invitrogen, Carlsbad, Calif.), 100 units/ml sodium-penicillin, 100 μg/ml streptomycin-sulfate, 10 μM insulin, 100 nM dexamethasone, and then for 2 hours in William's E medium containing 100 units/ml sodium penicillin, 100 μg/ml streptomycin-sulfate, 100 nM dexamethasone, 0.25 mg/ml transferrin, 0.25 μg/ml sodium selenite and 10 μM insulin. Cells were then washed and incubated for 3 hours in the same medium, but lacking insulin. Where indicated, […], […] After incubation, cells were sonicated in homogenizing buffer.
(§1) Tissue and Immunoprecipitate Preparations: As previously described (Standaert et al., J. Biol. Chem. 279:24929-24934, 2004; Sajan et al., J. Lipid Res. 50:1133-1145, 2009; Sajan et al., Diabetologia 52:1197-1207, 2009; Farese et al., J. Clin. Invest. 117:2289-2301, 2007) hepatocytes and tissues from in vivo experiments were homogenized in ice-cold buffer containing 0.25 M sucrose, 20 mM Tris/HCl (pH 7.5), 2 mM EGTA, 2 mM EDTA, 1 mM phenylmethylsulfonyl fluoride (PMSF), 20 μg/ml leupeptin, 10 μg/ml aprotinin, 2 mM Na4P2O7, 2 mM Na3VO4, 2 mM NaF, and 1 μM microcystin. After centrifugation for 10 minutes at 700×g to remove unbroken cells, debris, nuclei, and floating fat, cell lysates were stored at −70° C. After addition of 1% TRITON® X-100, 0.6% Nonidet and 150 mM NaCl, lysates were cleared of insoluble materials by low-speed centrifugation and subsequently immunoprecipitated with antibodies that target: (a) aPKCs (rabbit polyclonal antiserum from Santa Cruz Biotechnologies (Santa Cruz, Calif.) that recognizes C-termini of both PKC-λ and PKC-ζ); and (b) Akt2 (Upstate Cell Signaling/Millipore, Billerica, Mass.). Immunoprecipitates were collected on Sepharose-AG beads (Santa Cruz Biotechnologies).
aPKCι Assays: aPKC enzyme activity was measured as previously described (Standaert et al., J. Biol. Chem. 279:24929-24934, 2004; Sajan et al., J. Lipid Res. 50:1133-1145, 2009; Sajan et al., Diabetologia 52:1197-1207, 2009; Farese et al., J. Clin. Invest. 117:2289-2301, 2007). […]

[2] = tested on: aPKC; experiment: tissue aPKC activity in Het-MλKO mice; type: in vivo, mouse; settings: for aPKC activation in adipose tissue / aPKC activation in muscle: 7-day treatment s.c. (ATM 60 mg/kg; ICAPP 0.4 mg/kg)
Excerpt: In Vivo Mouse Studies: Male wild type (WT) and heterozygous muscle-specific PKC-λ knockout (Het-MλKO) mice were generated as described (Farese et al., J. Clin. Invest. 117:2289-2301, 2007) and used at 6-12 months of age, when the O/MS/T2DM phenotype in MλKO mice is well-developed. Mice were housed in a temperature-controlled environment with alternating 12-hour light and dark cycles, and fed ad libitum with standard chow (Harlan Teklad 20/18 with 5% fat, (10% of calories from fat)). All experimental procedures in mice were approved by the Institutional Animal Care and Use Committees of the Roskamp Institute and the University of South Florida College of Medicine, and the James A. Haley Veterans Administration Medical Center Research and Development Committee, Tampa, Fla.
(ICAPP; prepared by Southern Research, Birmingham, Ala.) at 0.4 mg/kg body weight. On the morning of the eighth day of inhibitor treatment, mice were injected intraperitoneally (IP) with 0.9% saline or saline containing 1 U insulin/kg body weight 15 minutes before sacrifice, an optimal time for studies of insulin stimulation of aPKC and Akt in liver, muscle and adipose tissues (Standaert et al., J. Biol. Chem. 279:24929-24934, 2004; Sajan et al., J. Lipid Res. 50:1133-1145, 2009; Sajan et al., Diabetologia 52:1197-1207, 2009; Farese et al., J. Clin. Invest. 117:2289-2301, 2007). After killing, blood, liver, quadriceps muscle and abdominal adipose tissues were rapidly removed and homogenized in buffer with a POLYTRON® homogenizer.
as §1
aPKCι Assays: aPKC enzyme activity was measured as previously described (Standaert et al., J. Biol. Chem. 279:24929-24934, 2004; Sajan et al., J. Lipid Res. 50:1133-1145, 2009; Sajan et al., Diabetologia 52:1197-1207, 2009; Farese et al., J. Clin. Invest. 117:2289-2301, 2007). […] After incubation, ^32P-labeled substrate was trapped on P-81 filter paper and counted. This assay reflects the specific activity of a constant amount of aPKC (even in Het-MλKO mice) that is immunoprecipitated by supplier-prescribed amounts of antiserum (Farese et al., J. Clin. Invest. 117:2289-2301, 2007; Beeson et al., Diabetes 52:1926-1934, 2003).

[3] = Het-MλKO mice, s.c. once daily (ICAPP 0.4 mg/kg 7 days; ICAP 0.5 mg/kg 8 days)

O=C([O-])CC([S][Au])C(=O)[O-] (centres unmarked) [ATM, aurothiomalate, reference compound]
total aPKC activity in intact hepatocytes ([1]; human hepatocytes): diminished | phosphorylation of aPKC auto(trans)phosphorylation sites (p-threonine-555/560-PKC-ι/ζ) [1]: diminished | aPKC activation in adipose tissue ([2]; Het-MλKO mice): increased significantly | aPKC activation in muscle ([2]; Het-MλKO mice): increased significantly

NC(=O)c1ncn([C@@H]2C[C@H](COP(=O)(O)O)[C@@H](O)[C@H]2O)c1N [ICAPP, 1H-imidazole-4-carboxamide, 5-amino-1-[2,3-dihydroxy-4-[(phosphonooxy)methyl]cyclopentyl]-[1R-(1α,2β,3β,4α)]]
PDK1-dependent phosphorylation of activation loop sites of PKC-ι/ζ (threonine-403/410) ([1]; human hepatocytes): did not inhibit | basal immunoprecipitable aPKC activity ([1]; human hepatocytes, basal (no insulin)): resistant | phosphorylation of aPKC auto(trans)phosphorylation sites (p-threonine-555/560-PKC-ι/ζ) [1]: diminished | inhibition of insulin-stimulated total (ι plus ζ) aPKC activity in intact human hepatocytes ([1]; non-diabetic human hepatocytes, 4 hours): approximately 50% | aPKC activation in adipose tissue ([2]; Het-MλKO mice): increased significantly or trended upward | aPKC activation in muscle ([2]; Het-MλKO mice): increased significantly or trended upward | hepatic aPKC activity [2, 3]: diminished

NC(=O)c1ncn([C@@H]2C[C@H](CO)[C@@H](O)[C@H]2O)c1N [ICAP, 1H-imidazole-4-carboxamide 5-amino-1-[2,3-dihydroxy-4-[hydroxymethyl]cyclopentyl]-[1R-(1α,2β,3β,4α)]]
insulin-provoked increase in aPKC activity ([1]; non-diabetic human hepatocytes, 6 hours, 100 nM insulin, 100 nM ICAP): inhibited | hepatic aPKC activity [2, 3]: inhibited | hepatic aPKC activity ([2]; ICAP-treated Mλ-Het KO mice (n = 12), 0.5 mg/kg body weight/day x 8 days s.c., mean ± SEM): 1374 ± 128 cpm/immunoppt
